Experimental findings from patent US20260115265A1, “METHODS AND COMPOSITIONS FOR PREVENTING OR TREATING FOOD ALLERGIES” (Revolo Biotherapeutics Limited, priority 2022, published 2026) are described below.

Read-outs that look alike come from different tables or passages of the source. Ends that are not written are not given here.

This series can be described thus: Serum/plasma pharmacokinetics (half-life). Type of series: in vivo.

For the sequence DGSVVVNKVSELPAGHGLNVNTLSYGDLAAD ['1104], the half-life was 10 to 15 min (in vivo, across species, read-out: half-life) and about 15 min (serum, read-out: serum PK).
